# Data from patent US4526892A, “Dimethylaminoalkyl-3-(ergoline-8'βcarbonyl)-ureas” (Farmitalia Carlo Erba, S.p.A., priority 1982, dated 1985).
# Like-named read-outs stand apart in the source and are kept apart here.
# Columns and labels:
# Emetic activity in dogs = details: dog, in vivo, po, observed for 6 hours; read-out: Emetic activity in dogs ED50
# Description: The emetic activity of the compounds was investigated by oral administration to male beagle dogs weighing 15-20 kg. […] Four to six animals per dose were employed for the ED50 evaluation. […] The emetic activity of the compounds is similar or lower than that of Bromocriptine. The ratio between activity and tolerance of the new ergoline derivatives accordingly is very high.
# prolactin secretion = test: Anti-prolactin activity: egg-nidation inhibition in rats; format: in vivo, rat (Sprague Dawley); details: Rattus norvegicus, po, 120 h, read-out: Nidation inhibition in rats ED50
# Description: The prolactin secretion inhibitory action of the compounds has been indirectly evaluated by determining the egg-nidation inhibitory action in rats. For the ergoline derivatives this activity is considered to be correlated with the anti-prolactin activity (E. FLUCKIGER and E. DEL POZO,Handb. exp. Pharmac. 49, 615, 1978), since prolactin is the only hypophysial hormone involved in the maintenance of the first part of pregnancy in rats (W. K. MORISHIGE and I. ROTHCHILD, Endocrinology 95, 260, 1974).
# Pregnant Sprague Dawley rats weighing 200-250 g were used. The compounds to be tested, dissolved in diluted mineral acids, were administered orally to groups from six to eight rats on day 5 of pregnancy. The animals were sacrificed on day 14 and the uteri were examined. The absence of implantation sites was taken as the criterion of anti-prolactin activity. Several doses were tested for the ED50 evaluation. As reference standard Bromocriptine was used.
# [1] = test system: spontaneously hypertensive male rats, strain SHR; test: Anti-hypertensive activity: change in blood pressure (BP) in SHR rats; format: in vivo, rat
# Method: (§1) Four spontaneously hypertensive male rats, strain SHR, weighing 250-300 g for each group were used. The animals were treated once a day for four consecutive days. Drugs were administered by gastric gavage, suspended in 5% gum arabic (0.2 ml/100 g body weight) and blood pressure (BP) and heart rate (HR) were measured by indirected tail/cuff method (BP Recorder W+W). Blood pressure and heart rate were measured on the first and fourth days of treatment 1 hour before and 1 and 5 hours after drug administration. Hydralazine and α-methyl-Dopa were used as reference drugs.
# [2] = test system: spontaneously hypertensive male rats, strain SHR; test: Change in heart rate (HR) in SHR rats; format: in vivo, rat
# Method: as §1
# [3] = 0.5 mg/kg os, 1st day, 1 hour after dosing
# [4] = 0.5 mg/kg os, 1st day, 5 hours after dosing
# [5] = 0.5 mg/kg os, 4th day, 1 hour after dosing
# [6] = 0.5 mg/kg os, 4th day, 5 hours after dosing
# [7] = 1 mg/kg os, 1st day, 1 hour after dosing
# [8] = 1 mg/kg os, 1st day, 5 hours after dosing
# [9] = 1 mg/kg os, 4th day, 1 hour after dosing
# [10] = 1 mg/kg os, 4th day, 5 hours after dosing
# [11] = os, all tested doses of the compound
# [12] = 2 mg/kg os, 1st day, 1 hour after dosing
# [13] = 2 mg/kg os, 1st day, 5 hours after dosing
# [14] = 2 mg/kg os, 4th day, 1 hour after dosing
# [15] = 2 mg/kg os, 4th day, 5 hours after dosing
# [16] = 10 mg/kg os, 1st day, 1 hour after dosing
# [17] = 10 mg/kg os, 1st day, 5 hours after dosing
# [18] = 10 mg/kg os, 4th day, 1 hour after dosing
# [19] = 10 mg/kg os, 4th day, 5 hours after dosing
# [20] = 0.1 mg/kg os, 1st day, 1 hour after dosing
# [21] = 0.1 mg/kg os, 1st day, 5 hours after dosing
# [22] = 0.1 mg/kg os, 4th day, 1 hour after dosing
# [23] = 0.1 mg/kg os, 4th day, 5 hours after dosing
# [24] = 12.5 mg/kg os, 1st day, 1 hour after dosing
# [25] = 12.5 mg/kg os, 1st day, 5 hours after dosing
# [26] = 12.5 mg/kg os, 4th day, 1 hour after dosing
# [27] = 12.5 mg/kg os, 4th day, 5 hours after dosing
# [28] = 5 mg/kg os, 1st day, 1 hour after dosing
# [29] = 5 mg/kg os, 1st day, 5 hours after dosing
# [30] = 5 mg/kg os, 4th day, 1 hour after dosing
# [31] = 5 mg/kg os, 4th day, 5 hours after dosing
structure (smiles),measurement,setting,value
"CC(C)C[C@H]1C(=O)N2CCC[C@H]2[C@]2(O)O[C@](NC(=O)[C@@H]3C=C4c5cccc6[nH]c(Br)c(c56)C[C@H]4N(C)C3)(C(C)C)C(=O)N12 [2-bromo-α-ergocryptine, reference compound]",TD50 at 6 h,Emetic activity in dogs,0.01 to 0.02 mg/kg
same,ED50,prolactin secretion,5.7 mg/kg
"CC(C)NC(=O)N(C(=O)[C@@H]1C[C@@H]2c3cccc4[nH]cc(c34)C[C@H]2N(C)C1)C(C)C [Example 1, 1,3-diisopropyl-3-(6'-methylergoline-8'β-carbonyl)urea]",Change in BP,[1]; [3],-27 mmHg
same,Change in BP,[1]; [4],-20 mmHg
same,Change in BP,[1]; [5],-20 mmHg
same,Change in BP,[1]; [6],0 mmHg
same,Change in BP,[1]; [7],-40 mmHg
same,Change in BP,[1]; [8],-37 mmHg
same,Change in BP,[1]; [9],-40 mmHg
same,Change in BP,[1]; [10],-32 mmHg
same,Hypotensive activity vs Hydralazine,[1]; doses not stated,greater and longer lasting hypotensive activity than Hydralazine
same,Effect on BP (in words),[1]; [11],marked decrease of BP in a dose dependent manner
same,Change in HR,[2]; [3],-20 beats/minute
same,Change in HR,[2]; [4],-12 beats/minute
same,Change in HR,[2]; [5],-20 beats/minute
same,Change in HR,[2]; [6],-7 beats/minute
same,Change in HR,[2]; [7],-30 beats/minute
same,Change in HR,[2]; [8],-35 beats/minute
same,Change in HR,[2]; [9],-35 beats/minute
same,Change in HR,[2]; [10],-30 beats/minute
"CCCN1C[C@H](C(=O)N(C(=O)NC(C)C)C(C)C)C[C@@H]2c3cccc4[nH]cc(c34)C[C@H]21 [Example 5, 1,3-diisopropyl-3-(6'-n-propylergoline-8'β-carbonyl)-urea]",TD50 at 6 h,Emetic activity in dogs,0.01 mg/kg
same,ED50,"prolactin secretion; p.o., day 5 of pregnancy",0.02 mg/kg
"CO[C@]12C[C@@H](C(=O)N(C(=O)NC(C)(C)C)C(C)(C)C)CN(C)[C@@H]1Cc1c[nH]c3cccc2c13 [Example 12, 1,3-di-t-butyl-3-(10'αmethoxy-6'-methylergoline-8'β-carbonyl)-urea]",Change in BP,[1]; [12],-17 mmHg
same,Change in BP,[1]; [13],-17 mmHg
same,Change in BP,[1]; [14],-10 mmHg
same,Change in BP,[1]; [15],-24 mmHg
same,Tolerance on the 4th day,[1]; 10 mg/kg,tolerance does not occur
same,Change in BP,[1]; [16],-26 mmHg
same,Change in BP,[1]; [17],-37 mmHg
same,Change in BP,[1]; [18],-71 mmHg
same,Change in BP,[1]; [19],-28 mmHg
same,Hypotensive activity vs Hydralazine,"[1]; compound 10 mg/kg vs Hydralazine 5 mg/kg, 1st day",comparable activity to that of Hydralazine
same,Hypotensive activity vs Hydralazine,"[1]; compound 10 mg/kg vs Hydralazine 5 mg/kg, 4th day",greater activity on the 4th day
same,Effect on BP (in words),[1]; [11],reduced BP in a dose dependent manner
same,Change in HR,[2]; [12],-10 beats/minute
same,Change in HR,[2]; [13],-10 beats/minute
same,Change in HR,[2]; [14],-20 beats/minute
same,Change in HR,[2]; [15],-12 beats/minute
same,Change in HR,[2]; [16],0 beats/minute
same,Change in HR,[2]; [17],-30 beats/minute
same,Change in HR,[2]; [18],+17 beats/minute
same,Change in HR,[2]; [19],-10 beats/minute
"CCNC(=O)N(CCCN(C)C)C(=O)[C@@H]1C[C@@H]2c3cccc4[nH]cc(c34)C[C@H]2N(C)C1 [Example 13, 1-ethyl-3-(3'-dimethylaminopropyl)-3(6'-methylergoline-8'β-carbonyl)-urea]",TD50 at 6 h,Emetic activity in dogs,0.01 mg/kg
same,ED50,prolactin secretion,0.3 mg/kg
CO[C@]12C[C@@H](C(=O)N(C(=O)NC(C)(C)C)C(C)(C)C)CN(C)[C@@H]1Cc1cn(C)c3cccc2c13 [Example 17],Effect on BP (in words),[1]; 0.1 mg/kg b.w.,No effect
same,Change in BP,[1]; [20],-5 mmHg
same,Change in BP,[1]; [21],-7 mmHg
same,Change in BP,[1]; [22],-4 mmHg
same,Change in BP,[1]; [23],-10 mmHg
same,Change in BP,[1]; [7],-20 mmHg
same,Change in BP,[1]; [8],-19 mmHg
same,Change in BP,[1]; [9],-43 mmHg
same,Change in BP,[1]; [10],-66 mmHg
same,Effect on BP (in words),"[1]; 10 mg/kg b.w., 1st and 4th day",dose related as well as very marked
same,Change in BP,[1]; [17],-60 mmHg
same,Change in BP,[1]; [18],-59 mmHg
same,Change in BP,[1]; [19],-93 mmHg
same,Hypotensive activity vs Hydralazine,"[1]; compound 1 mg/kg vs Hydralazine 5 mg/kg, 4th day",much more remarkable
same,Hypotensive activity vs Hydralazine,"[1]; compound 1 mg/kg vs Hydralazine 5 mg/kg, first day",comparable to that of Hydralazine
same,Hypotensive effect vs Hydralazine,"[1]; compound 10 mg/kg b.w., 1st and 4th days",hypotensive effect larger than Hydralazine
same,Change in HR,[2]; [20],-2 beats/minute
same,Change in HR,[2]; [21],+3 beats/minute
same,Change in HR,[2]; [22],-4 beats/minute
same,Change in HR,[2]; [23],-8 beats/minute
same,Change in HR,[2]; [7],-20 beats/minute
same,Change in HR,[2]; [8],-23 beats/minute
same,Change in HR,[2]; [9],-27 beats/minute
same,Change in HR,[2]; [10],-22 beats/minute
same,Change in HR,[2]; [16],+15 beats/minute
same,Change in HR,[2]; [17],-13 beats/minute
same,Change in HR,[2]; [18],-2 beats/minute
same,Change in HR,[2]; [19],+6 beats/minute
"CN1C[C@H](C(=O)N(C(=O)NC(C)(C)C)C(C)(C)C)C[C@@H]2c3cccc4c3c(cn4C)C[C@H]21 [Example 18, 1,3-di-tert-butyl-3-(1',6'-dimethylergoline-8'β-carbonyl)urea]",Change in BP,[1]; [7],-15 mmHg
same,Change in BP,[1]; [8],-10 mmHg
same,Change in BP,[1]; [9],-8 mmHg
same,Change in BP,[1]; [10],-14 mmHg
same,Effect on BP (in words),"[1]; 12.5 mg/kg b.w. (highest dose), 4th day",very remarkable on the 4th day of treatment and still lasting 5 hours after administration
same,Change in BP,[1]; [24],-19 mmHg
same,Change in BP,[1]; [25],-19 mmHg
same,Change in BP,[1]; [26],-38 mmHg
same,Change in BP,[1]; [27],-47 mmHg
same,Hypotensive activity vs Hydralazine,"[1]; compound 12.5 mg/kg vs Hydralazine 5 mg/kg, 4th day",much more remarkable
same,Hypotensive activity vs Hydralazine,"[1]; compound 12.5 mg/kg vs Hydralazine 5 mg/kg, first day",comparable to that of Hydralazine
same,Effect on BP (in words),[1]; [11],reduced BP with both the tested doses (12.5 and 1 mg/kg b.w.); this effect was dose dependent
same,Change in HR,[2]; [7],-22 beats/minute
same,Change in HR,[2]; [8],-20 beats/minute
same,Change in HR,[2]; [9],+7 beats/minute
same,Change in HR,[2]; [10],-8 beats/minute
same,Change in HR,[2]; [24],-10 beats/minute
same,Change in HR,[2]; [25],-15 beats/minute
same,Change in HR,[2]; [26],+2 beats/minute
same,Change in HR,[2]; [27],+5 beats/minute
"C=CCN1C[C@H](C(=O)N(CCCN(C)C)C(=O)NCC)C[C@@H]2c3cccc4[nH]cc(c34)C[C@H]21 [Example 19, 1-ethyl-3-(3'-dimethylaminopropyl)-3-(6'-allylergoline-8'βcarbonyl)-urea]",TD50 at 6 h,Emetic activity in dogs,0.02 mg/kg
same,ED50,"prolactin secretion; p.o., day 5 of pregnancy",0.03 mg/kg
"C=CCN1C[C@H](C(=O)N(CC)C(=O)NCCCN(C)C)C[C@@H]2c3cccc4[nH]cc(c34)C[C@H]21 [Example 20, 1-(3'-dimethylaminopropyl)-3-ethyl-3-(6'-allylergoline-8'β-carbonyl)-urea]",ED50,"prolactin secretion; p.o., day 5 of pregnancy",0.27 mg/kg
"CCCN1C[C@H](C(=O)N(CCCN(C)C)C(=O)NCC)C[C@@H]2c3cccc4[nH]cc(c34)C[C@H]21 [Example 21, 1-ethyl-3-(3'-dimethylaminopropyl)-3-(6'-n-propylergoline-8'β-carbonyl)-urea]",TD50 at 6 h,Emetic activity in dogs,0.02 to 0.04 mg/kg
same,ED50,"prolactin secretion; p.o., day 5 of pregnancy",0.02 mg/kg
"C=CCN1C[C@H](C(=O)N(C)C(=O)NC)C[C@@H]2c3cccc4[nH]cc(c34)C[C@H]21 [Example 24, 1,3-Dimethyl-3-(6'-allylergoline-8'β-carbonyl)-urea]",ED50,"prolactin secretion; p.o., day 5 of pregnancy",0.5 mg/kg
"NNc1nncc2ccccc12 [Hydralazine, reference compound]",Change in BP,[1]; [7],-5 mmHg
same,Change in BP,[1]; [8],-15 mmHg
same,Change in BP,[1]; [9],-5 mmHg
same,Change in BP,[1]; [10],0 mmHg
same,Change in BP,[1]; [28],-40 mmHg
same,Change in BP,[1]; [29],-20 mmHg
same,Change in BP,[1]; [30],-20 mmHg
same,Change in BP,[1]; [31],-7 mmHg
same,Change in HR,[2]; [7],+30 beats/minute
same,Change in HR,[2]; [8],+35 beats/minute
same,Change in HR,[2]; [9],+25 beats/minute
same,Change in HR,[2]; [10],+15 beats/minute
same,Change in HR,[2]; [28],+40 beats/minute
same,Change in HR,[2]; [29],+45 beats/minute
same,Change in HR,[2]; [30],+18 beats/minute
same,Change in HR,[2]; [31],+15 beats/minute
same,Effect on HR (in words),"[2]; SHR rats, os",increase of HR
